Consider one compound from ChEMBL document CHEMBL2010637, “Synthesis and evaluation of triazolones as checkpoint kinase 1 inhibitors” (Bioorg Med Chem Lett, 2012).

Data set [1] in a line: AUC in nude mouse. Particulars: plasma. The format is ADME, organism-based.
Data set [2] can be described thus: Clearance in nude mouse. In kind it is ADME, organism-based. The settings on record: in vivo.
A short description of data set [3]: Half life in nude mouse. The format is ADME, organism-based. The settings on record: in vivo.
Data set [4] can be described thus: Volume of distribution at steady state in nude mouse. The settings on record: in vivo, read-out: Vdss. In kind it is ADME, organism-based.
Data set [5] in a line: Lipophilicity, Log D of the compound. The format is physicochemical. The settings on record: octanol/water.

Regarding `O=c1[nH]nc2cc(CO)c3ccc(-c4ccc[nH]4)cc3n12`, in data set [1], the area under the curve (AUC) is 5.47 µM·h. Also, the clearance in data set [2] stood at 33 mL/min/kg. This compound also had a half-life in data set [3] of 1.8 h. For the same compound, the Vd in data set [4] was 3.4 L/kg. Also, in data set [5], the pH-dependent lipophilicity (logD) was found to be 2.19.
